This passage reports cytotoxicity results from ChEMBL document CHEMBL3507680, “University of Dundee, Gates Library screen for HepG2 cell viability”.

This data set in a line: Human HepG2 cell viability assay in 384 well format. The class given is toxicity, cell-based. Also on record: dose 125 nL, time 70.5 hour; concentration not given beside the values. The conditions noted are these: HepG2 cells, read-out: Inhibition.

Regarding `Cc1ccc(C(C(=O)O)N2CCCN(Cc3ccccn3)CC2)c(F)c1` (stereo not drawn), the cytotoxicity at 70.5 h was -4.69%.
With `CN1CCCC2(CCN(S(=O)(=O)c3ccc(-c4cnco4)s3)C2)C1=O` (stereo not drawn), the cytotoxicity at 70.5 h is -7.66%.
For `O=C(NCCN1CCOCC1)c1cc(COc2ccccc2F)[nH]n1`, the cytotoxicity at 70.5 h worked out at 0.766%.
As for `COc1ccc(CCN(C)C(=O)CN2C(=O)OC[C@@H]2C(C)C)cc1OC`, the figure is -4.47%.
Consider `Cc1cccc(-c2ncc(CNC(C)Cc3ccncc3)cn2)c1` (stereo not drawn), for which the cytotoxicity at 70.5 h was -3.63%.
Turning to `CCn1nc(CC(C)C)cc1C(=O)N1CCC(n2cnnc2)CC1`, the cytotoxicity at 70.5 h came to 8.59%.
As for `CC(C)[C@@H]1CN(Cc2cnc(C3CCCCC3)nc2)C[C@H]1C(=O)O`, the figure is 8.1%; as for `Cc1cc(N(C)Cc2snnc2C)nc(-c2cccnc2)n1`, -12.5%.
With `Cc1ccc2nc(-c3nc4c([nH]3)CC(C)(C)CNC4=O)cn2c1`, the cytotoxicity at 70.5 h worked out at 7.51%.
Take `CCn1cc(CN2C[C@H]3CC[C@@H]2CN(C(=O)c2ccncc2)C3)cn1`: the cytotoxicity at 70.5 h came to 21%.
With `CC(C)[C@H]1CN(C(=O)CC2CCC2)C[C@@H]1N(C)C`, the cytotoxicity at 70.5 h turned out to be 18.9%.
`CCN1CCN(C[C@H]2CC[C@@H](Cc3ccc4c(c3)OCO4)O2)CC1`: the cytotoxicity at 70.5 h was -5.47%.
Consider `Cn1cncc1C(=O)N1CCCC(c2ccn[nH]2)C1` (stereo not drawn), for which the cytotoxicity at 70.5 h is -16.9%.
In the case of `CCCn1ncc(C2CC(=O)NCc3nc4sc(C)cn4c32)c1C` (stereo not drawn), the cytotoxicity at 70.5 h was -3.1%.
With `COc1cccc2c(=O)n(Cc3cccnc3)cnc12`, the cytotoxicity at 70.5 h is -6.26%.
For the compound `Cc1cc(C)c2nc(CN3C[C@H](CCO)[C@@H](N)C3)cc(O)c2c1`, the cytotoxicity at 70.5 h is -4.09%.
`CC(=O)N1CCN(C(=O)Nc2ccc(Cl)cc2)[C@H]2CS(=O)(=O)C[C@H]21`: the cytotoxicity at 70.5 h was -2.86%.
As to `Cc1cc(N2CCOC(CN)C2)nc(-c2ccccc2)n1` (stereo not drawn), the cytotoxicity at 70.5 h is -10.8%.
In the case of `CC(=O)N[C@@H]1CN(Cc2nccn2C)C[C@H]1c1ccc(C)cc1`, the cytotoxicity at 70.5 h was 22.6%.
As to `Cc1ccc2c(c1)c(CNC(=O)C1CCCN(CC(N)=O)C1)nn2C` (stereo not drawn), the cytotoxicity at 70.5 h is -10.2%.
As for `C[C@@H]1CN(c2cccnn2)CC[C@@]1(O)C1CCOCC1`, the cytotoxicity at 70.5 h is -4.49%.
Turning to `Cc1cc(C)n(CC(=O)N2CCCCC2CCN2CCCC2=O)c(=O)n1` (stereo not drawn), the cytotoxicity at 70.5 h is -12.3%.
Consider `CCNC(=O)N1CCC(Nc2nccc(NCC)n2)CC1`, for which the cytotoxicity at 70.5 h was -11.4%.
For `Cc1c(C(C)N)cnn1-c1cccc2ccccc12` (stereo not drawn), the cytotoxicity at 70.5 h is -5.48%.
Take `CCc1cc(NC2CCN(CC(N)=O)CC2)nc(N2CCCCC2)n1`: the cytotoxicity at 70.5 h is -2.44%.
`CC(C)N1CCC(C(=O)N2CCC(c3ccc(F)cc3)C2)CC1` (stereo not drawn): the cytotoxicity at 70.5 h was -20.4%.
As to `CN(C)C(=O)N1CCCn2nc(CNC(=O)CCc3ccsc3)cc2C1`, the cytotoxicity at 70.5 h was -9.25%.
As for `CCOC(=O)CC1CCCCN1C(=O)CCc1cc(Cl)no1` (stereo not drawn), the cytotoxicity at 70.5 h was -1.88%.
Take `N#Cc1c(N)nc2c(c1C1CCOC1)CCc1cc(O)ccc1-2` (stereo not drawn): the cytotoxicity at 70.5 h was -11.5%.
As for `Cc1nc(O)cc(C2CCCN(C(=O)CN(C)c3ccccc3)C2)n1` (stereo not drawn), the figure is 1.65%; as for `COc1ccccc1OC1(C(=O)O)CCN(c2cnccn2)CC1`, 47.4%; as for `Cc1nn(C)cc1-c1ccnc(N(C)Cc2ccoc2)n1`, -3.89%.
On to `CCOC(=O)N1CCN(C(=O)C(C)n2ccnc2C(C)C)CC1` (stereo not drawn), for which the cytotoxicity at 70.5 h came to 8.16%.
As to `Cc1cc(C)c(-c2nc(-c3c(C)ncc4c3CCNC4)no2)o1`, the cytotoxicity at 70.5 h is -11.5%.
For `CCc1cc(N2CCNCC2)n2nc(C)c(C)c2n1` the value was -3.36%; for `COc1ccc(CN2C[C@@H](CN(C)C)[C@@H](CO)C2)cc1OC`, -3.1%; for `CS(=O)(=O)N1CCC(Oc2ccc(C(=O)NC3CCOC3)cc2Cl)CC1` (stereo not drawn), -7.64%.
As to `COc1cccc(OCC(=O)NCc2ccc3[nH]c(=O)[nH]c3c2)c1`, the cytotoxicity at 70.5 h is -13.7%.
For `NC1CCCN(C(=O)c2csc(-c3ccc(C(F)(F)F)cc3)n2)CC1` (stereo not drawn) the value was 36.2%; for `Cc1ccc(NCCCc2c(C)noc2C)nn1`, -6.84%.
Regarding `CN(C)C(=O)c1noc2c1CN(C(=O)CCC1CCCCN1C)CC2` (stereo not drawn), the cytotoxicity at 70.5 h is -4.32%.
For `COCCN(Cc1ccc(OC)nc1)Cc1cccs1` the value was 29.6%; for `CCC(C)N(Cc1ccncc1)C(=O)CCC(=O)OC` (stereo not drawn), 4.04%.
`COc1ccc(-c2cc[nH]n2)cc1CNC1CCCC1`: the cytotoxicity at 70.5 h is -7.14%.
For `O=C(CCn1cncn1)N1CC[C@@H](c2ccc3ccccc3c2)[C@H](O)C1` the value was -10.5%; for `Cc1nc[nH]c1-c1nccn1-c1ccc(C(N)=O)c(N2CCCC2)c1`, 20.6%; for `Cc1nnc(CNCC2(O)CCCN(Cc3ccc(F)c(F)c3)C2=O)[nH]1` (stereo not drawn), -0.578%.
On to `Cc1ccccc1C(C(=O)NCCSC(F)(F)F)N(C)C` (stereo not drawn), for which the cytotoxicity at 70.5 h is -11.1%.
`Cc1ccnc(CC(C)N(C)c2cc(CCN)nc(C)n2)c1` (stereo not drawn): the cytotoxicity at 70.5 h is -6.01%.
As for `O=C(CCc1nc(Cl)n[nH]1)NC1CCCN(CC2CCCCC2)C1` (stereo not drawn), the figure is 0.564%; as for `CCN(Cc1cc(Cl)ccc1OC)Cc1cc(C)nn1C`, 2.1%; as for `O=C(O)CC1COCCN1Cc1ccccc1OCCc1ccccc1` (stereo not drawn), -3.62%.
Take `CC(=O)N1CCCCC1c1ncnn1-c1ccc2nc(C)sc2c1` (stereo not drawn): the cytotoxicity at 70.5 h was -4.05%.
With `Cc1nc(CC(=O)N(CCN2CCOCC2)Cc2ccco2)c(C)s1`, the cytotoxicity at 70.5 h was -4.1%.
With `CCOc1ncccc1C(=O)N1CCN(C)C2(CCN(C)CC2)C1`, the cytotoxicity at 70.5 h amounted to 4.53%.
In the case of `N[C@H]1CN(S(=O)(=O)N2CCCC2)C[C@@H]1c1ccccc1`, the cytotoxicity at 70.5 h is -4.68%.
As for `CCc1ccc2nc(C)cc(C(=O)N[C@@H]3CCCNC3)c2c1`, the figure is 2.34%.
For `Cc1nc(O)cc(CCNC(=O)C2CC(=O)N(CC(C)C)C2)n1` (stereo not drawn) the value was -8.39%; for `Cc1cccc2[nH]c(C3CCN(C(=O)c4cnc(O)cc4O)CC3)nc12`, 22.7%.
As for `COc1ccc([C@@H]2CN(Cc3cccnc3N)C[C@H]2NC(C)=O)cc1`, the figure is -8.12%.
Take `CCOCC(=O)N1CCC(c2nccn2CC2CC2)CC1`: the cytotoxicity at 70.5 h amounted to 1.15%.
For `Cc1nc2c(c(=O)n1C)CCN(C(=O)CCc1ccccn1)CC2` the value was -5.46%; for `COc1cccc(N2CCN(C(=O)CCO)CC2=O)c1`, -8.46%; for `CN1Cc2ccccc2CC1C(=O)N1CCN(CCS(C)(=O)=O)CC1` (stereo not drawn), 5.5%.
As to `Cc1cc(=O)[nH]c(SC(C)C(=O)N2CCC(NS(C)(=O)=O)CC2)n1` (stereo not drawn), the cytotoxicity at 70.5 h was 2.17%.
For the compound `O=C(NCCC1CN(Cc2c[nH]cn2)CCO1)Nc1ccccc1` (stereo not drawn), the cytotoxicity at 70.5 h is -8.29%.
As to `O=C(CCCn1cncn1)N1CCC2(CC1)[C@H](O)C[C@@H]2OCCO`, the cytotoxicity at 70.5 h is -6.43%.
For `O=C(NCc1ccco1)c1cc(N2CC[C@@H](O)C2)ccn1` the value was 30.9%; for `O=C(NCCc1ccncc1)c1ccc(S(=O)(=O)NC2CCC2)cc1`, -9.51%.
For the compound `CN1CCCC2(CCN(c3cccc(C#N)n3)C2)C1=O` (stereo not drawn), the cytotoxicity at 70.5 h is -8.81%.
Consider `CC(C)n1ccnc1C1CCN(C(=O)c2ccc(SCCO)cc2)CC1`, for which the cytotoxicity at 70.5 h is -8.09%.
For the compound `Cc1nc2c(c(N(C)C)n1)CCN(C(=O)c1sccc1S(N)(=O)=O)C2`, the cytotoxicity at 70.5 h was -7%.
For `O=C(O)c1cccnc1CN1CCCCC1CCc1cccs1` (stereo not drawn), the cytotoxicity at 70.5 h was found to be 12.3%.
As to `O=C(Cc1ccsc1)N1CCC(Cn2cc(CCO)nn2)CC1`, the cytotoxicity at 70.5 h was -14.1%.
As for `CCC(C)N(Cc1cccnc1)Cc1ccc2c(c1)OCCO2` (stereo not drawn), the cytotoxicity at 70.5 h worked out at 3.73%.
Turning to `COc1cc(N2CCN(Cc3ccc(C)o3)C(CCO)C2)nc(N)n1` (stereo not drawn), the cytotoxicity at 70.5 h is -4.16%.
As to `COCc1nc(CNc2cc(C)nc(N3CCCCC3)n2)no1`, the cytotoxicity at 70.5 h was -7.86%.
For the compound `c1ccc(-c2nc3c(c(NCCc4c[nH]cn4)n2)CCNC3)cc1`, the cytotoxicity at 70.5 h was -12.1%.
As for `CCC(C)NC(=O)NCc1cc2n(n1)CCCN(C1CCCCC1)C2` (stereo not drawn), the figure is 4.95%; as for `O=C(CCn1cc(Cl)cn1)N1C[C@@H]2CC[C@H](C1)N(Cc1ccccn1)C2`, -11.7%.
In the case of `Cc1oc(-c2ccc(F)cc2)nc1CN1CCOCS1(=O)=O`, the cytotoxicity at 70.5 h is -12.2%.
Turning to `Fc1ccc(C(CNc2ccncn2)N2CCCCC2)cc1` (stereo not drawn), the cytotoxicity at 70.5 h was -13.6%.
As for `CCn1ccnc1C1CCN(Cc2cccc(Cl)c2)CC1`, the figure is 37.8%; as for `Cc1nc(N)nc(C)c1Cc1nc(C2CC2)n[nH]1`, -0.863%; as for `COc1ccc(C(=O)N2CCOC3(CNCCOC3)C2)c(OC)n1` (stereo not drawn), 28%.
`O=C(NCCN1CCCCCC1)c1coc(COc2ccc(F)cc2)n1`: the cytotoxicity at 70.5 h turned out to be 8.68%.
In the case of `CCOCCn1c(=O)n(CCC=C(C)C)c2cc(C(=O)O)cnc21`, the cytotoxicity at 70.5 h is -4.64%.
As for `Cc1ccccc1CC1(C(=O)O)CCCN(c2ncnc3[nH]ccc23)C1` (stereo not drawn), the figure is -5.97%.
As for `Cc1ccccc1CSc1nc(N)cc(N2CCOCC(CO)C2)n1` (stereo not drawn), the figure is 6.16%; as for `Cc1cc(NCCS(C)(=O)=O)nc2cc3c(cc12)CCC3`, -5.3%.
Consider `CCNc1ncc(C(=O)NCCc2csc(-c3ncccn3)n2)cn1`, for which the cytotoxicity at 70.5 h amounted to 5.7%.
Take `CCC(CC)C(=O)NS(=O)(=O)c1ccc(C#N)cc1C(F)(F)F`: the cytotoxicity at 70.5 h is -0.398%.
As for `CC(C)CC(=O)NS(=O)(=O)c1ccc(C#N)cc1C(F)(F)F`, the figure is -3.13%.
Turning to `COc1ccc(Cl)cc1NCC(=O)NCc1cccnc1OC`, the cytotoxicity at 70.5 h was determined as 17.6%.
For `Cn1cnc(S(=O)(=O)NCCN2CCCCCC2)c1Cl` the value was 4.34%; for `CCC(C)C(=O)NS(=O)(=O)c1ccc(C#N)cc1C(F)(F)F` (stereo not drawn), -3.39%; for `COc1ccnc(N2CCN(C(=O)c3ccn(C)c(=O)c3)CC2)n1`, -1.1%.
Turning to `COc1cc(C)nc(N2CCN(C(=O)c3ccn(C)c(=O)c3)CC2)n1`, the cytotoxicity at 70.5 h was -0.122%.
